Measured values: patent US9365522B2, “Pyrazole amide derivative” (AMGEN INC., priority 2015, dated 2016)

Target: T1, ligand binding domain of human ROR gamma (Homo sapiens, UniProt P51449)
T1 construct: NM_001001523; expressed in transfected cells; host or cells: HEK293T
T1 sequence (P51449 247-497 isoform P51449-2): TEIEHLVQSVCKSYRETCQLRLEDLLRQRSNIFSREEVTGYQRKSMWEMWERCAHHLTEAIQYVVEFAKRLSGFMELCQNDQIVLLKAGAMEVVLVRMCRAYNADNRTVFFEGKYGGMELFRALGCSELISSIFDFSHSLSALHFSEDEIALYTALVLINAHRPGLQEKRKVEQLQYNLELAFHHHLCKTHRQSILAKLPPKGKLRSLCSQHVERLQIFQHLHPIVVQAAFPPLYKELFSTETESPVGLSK
Assay: ROR gamma reporter gene assay (GAL4-RORγ LBD luciferase, Dual-Glo)
Type: cell-based
Conditions: HEK293T cells transfected with pM-ROR gamma, 8 concentrations 3.5 nM to 10.5 μM, 24 h incubation; for IC50: read-out: result (pIC50, inhibition of RORγ transcriptional activity) (converted)
How it was run: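 Transient GAL4-RORγ LBD (aa 247-497) / 5×UAS-luc / pRL-CMV cotransfection in HEK293T, charcoal-stripped 10% FBS. 8-pt dose, 3.5 nM–10.5 μM, 0.075% DMSO final. 24 h, 37 °C, 5% CO2. Dual-Glo firefly/renilla readout; pIC50 from curve fit.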

Compound | IC50 | result (pIC50, inhibition of RORγ transcriptional activity)
CC(C)(C)CN(CC(=O)c1c(Cl)cncc1Cl)C(=O)c1cnn(C2CCC(C)(C(=O)O)CC2)c1Cl (stereo not drawn) [Example 276, trans-4-(5-chloro-4-((2-(3,5-dichloropyridin-4-yl)-2-oxoethyl)-(2,2-dimethylpropyl)carbamoyl)pyrazol-1-yl)-1-methylcyclohexane-1-carboxylic acid] |  | 6.91
Cc1cc(C)c(C(=O)CN(C(=O)c2cnn([C@H]3CC[C@](C)(C(=O)O)CC3)c2C(F)(F)F)C2CCC(C)(C)CC2)c(Cl)c1 [Example 279, trans-4-(4-((2-(2-chloro-4,6-dimethylphenyl)-2-oxoethyl)-(4,4-dimethylcyclohexyl)carbamoyl)-5-(trifluoromethyl)pyrazol-1-yl)-1-methylcyclohexane-1-carboxylic acid] | 38000 pM | 
C[C@]1(C(=O)O)CC[C@H](n2ncc(C(=O)N(CC(=O)c3c(Cl)cccc3Cl)CC3(F)CCCC3)c2C(F)(F)F)CC1 [Example 281, trans-4-(4-((2-(2,6-dichlorophenyl)-2-oxoethyl)-((1-fluorocyclopentyl)methyl)carbamoyl)-5-(trifluoromethyl)pyrazol-1-yl)-1-methylcyclohexane-1-carboxylic acid] | 4270 pM | 
Cc1cc(Cl)c(C(=O)CN(CC2(F)CCCC2)C(=O)c2cnn([C@H]3CC[C@](C)(C(=O)O)CC3)c2C(F)(F)F)c(Cl)c1 [Example 282, trans-4-(4-((2-(2,6-dichloro-4-methylphenyl)-2-oxoethyl)-((1-fluorocyclopentyl)methyl)carbamoyl)-5-(trifluoromethyl)pyrazol-1-yl)-1-methylcyclohexane-1-carboxylic acid] | 3390 pM | 
CC(C)(C)CN(CC(=O)c1c(Cl)cccc1Cl)C(=O)c1cnn([C@H]2CC[C@](C)(C(=O)O)CC2)c1C(F)(F)F [Example 284, trans-4-(4-((2-(2,6-dichlorophenyl)-2-oxoethyl)-(2,2-dimethylpropyl)carbamoyl)-5-(trifluoromethyl)pyrazol-1-yl)-1-methylcyclohexane-1-carboxylic acid] | 11200 pM | 

More lines, main results first:

IC50 | Compound | result (pIC50, inhibition of RORγ transcriptional activity)
7240 pM | Cc1cc(Cl)c(C(=O)CN(C(=O)c2cnn([C@H]3CC[C@](C)(C(=O)O)CC3)c2C(F)(F)F)[C@H]2C[C@@H]3[C@H](C2)C3(C)C)c(Cl)c1 [Example 277, trans-4-(4-((2-(2,6-dichloro-4-methylphenyl)-2-oxoethyl)((1R,3r,5S)-6,6-dimethylbicyclo[3.1.0]hexan-3-yl)carbamoyl)-5-(trifluoromethyl)-1H-pyrazol-1-yl)-1-methylcyclohexanecarboxylic acid] | 
11700 pM | CC1(C)[C@@H]2C[C@H](N(CC(=O)c3c(Cl)cccc3Cl)C(=O)c3cnn([C@H]4CC[C@](C)(C(=O)O)CC4)c3C(F)(F)F)C[C@@H]21 [Example 278, trans-4-(4-((2-(2,6-dichlorophenyl)-2-oxoethyl)((1R,3r,5S)-6,6-dimethylbicyclo[3.1.0]hexan-3-yl)carbamoyl)-5-(trifluoromethyl)-1H-pyrazol-1-yl)-1-methylcyclohexanecarboxylic acid] | 
245000 pM | Cc1cc(Cl)cc(C)c1C(=O)CN(C(=O)c1cnn([C@H]2CC[C@](C)(C(=O)O)CC2)c1C(F)(F)F)C1CCC(C)(C)CC1 [Example 280, trans-4-(4-((2-(4-chloro-2,6-dimethylphenyl)-2-oxoethyl)-(4,4-dimethylcyclohexyl)carbamoyl)-5-(trifluoromethyl)pyrazol-1-yl)-1-methylcyclohexane-1-carboxylic acid] | 
9120 pM | CC1(C)CCC(N(CC(=O)c2c(Cl)cccc2Cl)C(=O)c2cnn([C@H]3CC[C@](C)(C(=O)O)CC3)c2C(F)(F)F)CC1 [Example 283, trans-4-(4-((2-(2,6-dichlorophenyl)-2-oxoethyl)-(4,4-dimethylcyclohexyl)carbamoyl)-5-(trifluoromethyl)pyrazol-1-yl)-1-methylcyclohexane-1-carboxylic acid] | 
